PMC5380659, “Unique charge-dependent constraint on collagen recognition by integrin α10β1” (Matrix Biology, 2017)
“Also recorded” adds a separate entry of the source.

B1: collagen III: intact collagen III (protein)
chain: QQEAVEGGCSHLGQSYADRDVWKPEPCQICVCDSGSVLCDDIICDDQELDCPNPEIPFGECCAVCPQPPTAPTRPPNGQGPQGPKGDPGPPGIPGRNGDPGIPGQPGSPGSPGPPGICESCPTGPQNYSPQYDSYDVKSGVAVGGLAGYPGPAGPPGPPGPPGTSGHPGSPGSPGYQGPPGEPGQAGPSGPPGPPGAIGPSGPAGKDGESGRPGRPGERGLPGPPGIKGPAGIPGFPGMKGHRGFDGRNGEKGETGAPGLKGENGLPGENGAPGPMGPRGAPGERGRPGLPGAAGARGNDGARGSDGQPGPPGPPGTAGFPGSPGAKGEVGPAGSPGSNGAPGQRGEPGPQGHAGAQGPPGPPGINGSPGGKGEMGPAGIPGAPGLMGARGPPGPAGANGAPGLRGGAGEPGKNGAKGEPGPRGERGEAGIPGVPGAKGEDGKDGSPGEPGANGLPGAAGERGAPGFRGPAGPNGIPGEKGPAGERGAPGPAGPRGAAGEPGRDGVPGGPGMRGMPGSPGGPGSDGKPGPPGSQGESGRPGPPGPSGPRGQPGVMGFPGPKGNDGAPGKNGERGGPGGPGPQGPPGKNGETGPQGPPGPTGPGGDKGDTGPPGPQGLQGLPGTGGPPGENGKPGEPGPKGDAGAPGAPGGKGDAGAPGERGPPGLAGAPGLRGGAGPPGPEGGKGAAGPPGPPGAAGTPGLQGMPGERGGLGSPGPKGDKGEPGGPGADGVPGKDGPRGPTGPIGPPGPAGQPGDKGEGGAPGLPGIAGPRGSPGERGETGPPGPAGFPGAPGQNGEPGGKGERGAPGEKGEGGPPGVAGPPGGSGPAGPPGPQGVKGERGSPGGPGAAGFPGARGLPGPPGSNGNPGPPGPSGSPGKDGPPGPAGNTGAPGSPGVSGPKGDAGQPGEKGSPGAQGPPGAPGPLGIAGITGARGLAGPPGMPGPRGSPGPQGVKGESGKPGANGLSGERGPPGPQGLPGLAGTAGEPGRDGNPGSDGLPGRDGSPGGKGDRGENGSPGAPGAPGHPGPPGPVGPAGKSGDRGESGPAGPAGAPGPAGSRGAPGPQGPRGDKGETGERGAAGIKGHRGFPGNPGAPGSPGPAGQQGAIGSPGPAGPRGPVGPSGPPGKDGTSGHPGPIGPPGPRGNRGERGSEGSPGHPGQPGPPGPPGAPGPCCGGVGAAAIAGIGGEKAGGFAPYYG

Tests used:
[1] = test system: α10β1; test: Overall recognition by α10β1 (I domain and C2C12-α10β1 cells, summary); conditions: abstract and discussion; I domain and/or C2C12-α10β1 cells
Protocol: I domain adhesion was determined colorimetrically, as described, here termed solid phase binding assay (SPBA). Peptides were coated at 10 μg/ml for 1 h at 22 °C on Immulon-2 HB 96-well plates (Thermo Life Sciences, Basingstoke, UK), and blocked for 1 h with 200 μl of TBS containing 50 mg/ml bovine serum albumin. Wells were washed four times with 200 μl of the adhesion buffer (TBS with 1 mg/ml bovine serum albumin) before adding 100 μl of adhesion buffer containing 10 μg/ml of recombinant GST I domains in the presence of either 2 mM MgCl2 or EDTA for 1 h at room temperature. Wells were washed five times with 200 μl of adhesion buffer containing MgCl2 or EDTA, before adding 100 μl of adhesion buffer containing the anti-GST-HRP conjugate at 1:10,000 dilution for 1 h at room temperature. After washing, colour was developed using an ImmunoPure TMB Substrate Kit (Pierce) according to the manufacturer's instructions.
(§1) The mouse myoblast cell line, C2C12, (control and transfectants, C2C12-α1β1, C2C12-α2β1, C2C12-α10β1 or C2C12-α11β1) was maintained in RPMI medium containing 10% fetal bovine serum, 2 mM glutamine, 100 IU/ml penicillin, 100 μg/ml streptomycin, and 2.5 μg/ml amphotericin. Cells were harvested by centrifugation, washed, and suspended at 0.5 × 10^6/ml in Tris-buffered saline supplemented with 5.5 mM glucose and either 2 mM EDTA or 2 mM MgCl2. SPBA was performed as follows: 100 μl of the cell suspension was added to peptide-coated wells [42] at 20 °C for 60 min. Cell adhesion was determined colorimetrically after lysis, using a lactate dehydrogenase (LDH)-based cell detection kit (Roche Diagnostics) according to the supplier's instructions.
(§2) To quantitate C2C12-α10β1 binding to collagen peptides, we used the impedance-based xCELLigence system (Acea) that allows label-free, dynamic monitoring of cell adhesion in real-time. The assay system expresses the adhesion-dependent rise in well impedance in units of cell index (CI), defined as (Rn − Rb) / 15; where Rn is the electrical impedance of each cell-containing well and Rb is the background impedance of the well with medium alone

[2] = test system: collagen-binding integrins; design: method as in 3 sources, ref [7], [8] = [7]; PMID 10778855; doi:10.1016/S0092-8674(00)80622-4; 7 Emsley J. Knight C.G. Farndale R.W. Barnes M.J. Liddington R.C. Structural basis of collagen recognition by integrin alpha2beta1 Cell 101 1 2000 47 56 10778855 10.1016/S0092-8674(00)80622-4 || [8]; PMID 16326707; doi:10.1074/jbc.M509818200; 8 Raynal N. Hamaia S.W. Siljander P.R. Maddox B. Peachey A.R. Fernandez R. Foley L.J. Slatter D.A. Jarvis G.E. Farndale R.W. Use of synthetic peptides to locate novel integrin alpha2beta1-binding moti ||| ref [8], [10] = [8]; PMID 16326707; doi:10.1074/jbc.M509818200; 8 Raynal N. Hamaia S.W. Siljander P.R. Maddox B. Peachey A.R. Fernandez R. Foley L.J. Slatter D.A. Jarvis G.E. Farndale R.W. Use of synthetic peptides to locate novel integrin alpha2beta1-binding moti || [10]; PMID 16043429; doi:10.1074/jbc.M502431200; 10 Kim J.K. Xu Y. Xu X. Keene D.R. Gurusiddappa S. Liang X. Wary K.K. Hook M. A novel binding site in collagen type III for the integrins, alpha 1beta 1 and alpha 2beta 1 J. Biol. Chem. 280 2005 32512 ||| ref [11] = [11]; PMID 10986291; doi:10.1074/jbc.M007668200; 11 Xu Y. Gurusiddappa S. Rich R.L. Owens R.T. Keene D.R. Mayne R. Hook A. Hook M. Multiple binding sites in collagen type I for the integrins α1β1 and α2β1 J. Biol. Chem. 275 2000 38981 38989 10986291; conditions: ref [11]; cited from earlier work
Text: Many related motifs have now been identified using the Collagen Toolkits developed in this laboratory for the purpose. These are libraries of overlapping peptides of 27 amino acids of collagen primary sequence (guest sequence), flanked ...

[3] = test system: C2C12-α10β1 cells; test: LDH-based SPBA of C2C12-α10β1 cell adhesion; design: species or system mouse; conditions: short THPs, 2 mM Mg^2 +, 1 h, Fig. 4B
Protocol: The mouse myoblast cell line, C2C12-α10β1 clone, expresses α10β1 as its sole collagen-binding integrin [16]. To investigate the binding of α10β1 to collagen in a cellular and whole integrin context, therefore, the adhesion of C2C12-α10β1 cells to Toolkits II and III was performed using two different approaches. First, SPBA was used, with lactate dehydrogenase to report the presence of adherent cells, after lysis, as described in Experimental. […] C2C12-α10B1 cells generally bound more prominently to those weaker peptides that supported just-observable binding of free I-domain. This may reflect avidity of the receptor-populated cell surface for the peptide-coated wells, or perhaps up-regulation of integrin affinity following receptor engagement. It is also possible that some cell binding reflects specific indirect interactions. For example, fibronectin, available either by intrinsic expression or from the serum supplement, binds well to II-44, and can also bind integrin αVβ3 [21].
Fig. 2 Binding of α10β1-transfected C2C12 cells to Collagen Toolkits. 96-well plates were coated with peptides as for Fig. 1, then C2C12-α10β1 cells (5 × 10^4 per well) were added and incubated for 1 h in the presence of either 2 mM MgCl2 or 2 mM EDTA as above. A: binding to Toolkit II. B: binding to Toolkit III.
as §1

[4] = test system: integrin α1β1; design: method as in 3 sources, ref [4]; PMID 19693543; doi:10.1007/s00441-009-0834-6; 4 Barczyk M. Carracedo S. Gullberg D. Integrins Cell Tissue Res. 339 1 2010 269 280 19693543 10.1007/s00441-009-0834-6 PMC2784866 ||| ref [12] = [12]; PMID 22654115; doi:10.1074/jbc.M112.353144; 12 Hamaia S.W. Pugh N. Raynal N. Nemoz B. Stone R. Gullberg D. Bihan D. Farndale R.W. Mapping of potent and specific binding motifs, GLOGEN and GVOGEA, for integrin alpha1beta1 using collagen toolkits ||| ref not given; conditions: ref [12]; cited from earlier work
Text: The collagen-binding integrin family is complete, with four established members, α1β1, α2β1, α10β1 and α11β1. These are highly-conserved, heterodimeric receptors with an important structural feature in common, the presence of an I (inserted) domain which contains the metal ion-dependent adhesion site (MIDAS). The MIDAS is a constellation of electronegative residues at the distal surface of this 200-residue domain that, in the resting, non-ligated state, can co-ordinate a Mg^2 + ion. […] Many related motifs have now been identified using the Collagen Toolkits developed in this laboratory for the purpose. These are libraries of overlapping peptides of 27 amino acids of collagen primary sequence (guest sequence), flanked ... || Why would collagen II differ in this respect?

[5] = test system: α2β1; design: method as in 4 sources, ref [8], [10] = [8]; PMID 16326707; doi:10.1074/jbc.M509818200; 8 Raynal N. Hamaia S.W. Siljander P.R. Maddox B. Peachey A.R. Fernandez R. Foley L.J. Slatter D.A. Jarvis G.E. Farndale R.W. Use of synthetic peptides to locate novel integrin alpha2beta1-binding moti || [10]; PMID 16043429; doi:10.1074/jbc.M502431200; 10 Kim J.K. Xu Y. Xu X. Keene D.R. Gurusiddappa S. Liang X. Wary K.K. Hook M. A novel binding site in collagen type III for the integrins, alpha 1beta 1 and alpha 2beta 1 J. Biol. Chem. 280 2005 32512 ||| ref not given ||| ref [4] = [4]; PMID 19693543; doi:10.1007/s00441-009-0834-6; 4 Barczyk M. Carracedo S. Gullberg D. Integrins Cell Tissue Res. 339 1 2010 269 280 19693543 10.1007/s00441-009-0834-6 PMC2784866 ||| ref [12] = [12]; PMID 22654115; doi:10.1074/jbc.M112.353144; 12 Hamaia S.W. Pugh N. Raynal N. Nemoz B. Stone R. Gullberg D. Bihan D. Farndale R.W. Mapping of potent and specific binding motifs, GLOGEN and GVOGEA, for integrin alpha1beta1 using collagen toolkits; conditions: cited from earlier work
[6] = test system: C2C12-α10β1 cells; test: xCELLigence real-time adhesion of C2C12-α10β1 cells; format: cell-based, mouse; conditions: 2.5 × 10^4 cells/well, 2 mM Mg^2 +, over 1 h, Fig. 3A
Protocol: Fig. 3 Binding of α10β1-transfected C2C12 cells to collagens and selected Toolkit peptides. Peptides or collagens were coated on ePlates as described, then cells were added in the presence of 2 mM Mg^2 + or EDTA, and Cell Index value was collected over 1 h. […] B: time courses are shown of adhesion to selected Toolkit peptides or GPP-10.
as §2
Briefly, C2C12 cells were seeded at 2.5 × 10^4 cells/well in an E-plate (Roche Applied Science) pre-coated with peptides as for SPBA, and CI was measured for up to 2 h.

Row | Molecule | Recognition by α10β1, summary [1] | Adhesion of C2C12-α10β1 cells to short triple-helical peptides [3] | other results
1 | GAOGER [integrin motif in collagens II, III, IV, VI, VII, IX] | weak ligand | – | –
2 | GASGER [integrin motif in collagens I, XXIII] | – | – | Ligand of collagen-binding integrins, weak motifs [2]: weak ligands
3 | GFOGEK [short triple-helical peptide; motif in collagens IV, VI, X] | now shown to bind α10β1 | less well | –
4 | GKOGER [motif occurring only in collagen X and in the α2 chain of collagen I] | compromised in the context of α10β1; also recorded: α10-repellent | – | –
5 | GLKGEN [short triple-helical peptide containing GLKGEN] | – | less well | –
6 | GLOGEA [short triple-helical peptide; motif in collagens IV, XI, XXVII] | – | bound strongly | –
7 | GMOGER [short triple-helical peptide containing GMOGER] | – | less well | –
8 | GRSGET [short THP containing GRSGET, motif unique to collagen II] | not recognised by α10β1; also recorded: α10-repellent | – | –
9 | GVOGEA [integrin motif in collagen II] | moderately good ligand for α10β1 | – | Affinity for integrin α1β1 [4]: moderate ligand; Affinity for α2β1 ([5]; ref [12]): little affinity for α2β1
10 | collagen I: intact collagen I | – | – | Cell adhesion to collagens (Cell Index, endpoint) [6]: bound quite well; Preferred ligand of α2β1 ([5]; ref [4]): preferred ligand
11 | B1 | – | – | Cell adhesion to collagens (Cell Index, endpoint) [6]: bound quite well
